Experimental findings from patent US20250276962A1, “CONTRACEPTIVE COMPOUNDS AND METHODS” (Regents of the University of Minnesota, priority 2021, published 2025) are described below.

Data set [1] is described as follows: Solubility in PBS at pH 7.4. In kind it is physicochemical.
For another data set, the target named is T1, RARγ (Homo sapiens, UniProt P13631).
T1 construct: host or cells: unnamed reporter cells
T1 sequence (P13631 1-454): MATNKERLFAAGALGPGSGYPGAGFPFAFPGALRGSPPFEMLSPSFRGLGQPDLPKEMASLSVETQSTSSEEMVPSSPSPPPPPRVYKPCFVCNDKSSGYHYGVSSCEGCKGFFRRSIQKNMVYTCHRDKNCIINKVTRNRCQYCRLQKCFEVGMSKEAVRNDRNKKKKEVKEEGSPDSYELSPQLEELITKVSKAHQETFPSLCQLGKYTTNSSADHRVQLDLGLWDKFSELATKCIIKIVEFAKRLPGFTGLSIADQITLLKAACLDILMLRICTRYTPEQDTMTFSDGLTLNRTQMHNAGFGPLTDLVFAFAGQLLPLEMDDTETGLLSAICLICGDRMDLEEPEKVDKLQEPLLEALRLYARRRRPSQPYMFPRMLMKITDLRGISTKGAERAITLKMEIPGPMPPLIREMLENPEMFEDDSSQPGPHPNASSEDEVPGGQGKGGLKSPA
The data set can be described thus: Transactivation (luciferase) antagonist assay, RARγ. It is filed as cell-based. To be noted: vs EC80 (8 nM) ATRA, luciferase readout; read-out: RARγ Antagonism IC50. The method, then: (§1) Control wells containing cells without added agonist defined the background signal values. […] Cell suspension (30 μL) was added to each well and the assay plate was incubated overnight in a 5% CO2 incubator at 37° C. Luciferase detection reagent (15 μL) was then added and the plate was incubated at RT for 30 minutes. Luminescence was quantified using an EnSpire plate reader (PerkinElmer, Waltham, MA). IC50 values were determined by fitting dose response data using the four-parameter logistic equation in GraphPad Prism 7.0.

The target of the next data set is T2, RARα (Homo sapiens, UniProt P10276).
T2 construct: host or cells: unnamed reporter cells
T2 sequence (P10276 1-462): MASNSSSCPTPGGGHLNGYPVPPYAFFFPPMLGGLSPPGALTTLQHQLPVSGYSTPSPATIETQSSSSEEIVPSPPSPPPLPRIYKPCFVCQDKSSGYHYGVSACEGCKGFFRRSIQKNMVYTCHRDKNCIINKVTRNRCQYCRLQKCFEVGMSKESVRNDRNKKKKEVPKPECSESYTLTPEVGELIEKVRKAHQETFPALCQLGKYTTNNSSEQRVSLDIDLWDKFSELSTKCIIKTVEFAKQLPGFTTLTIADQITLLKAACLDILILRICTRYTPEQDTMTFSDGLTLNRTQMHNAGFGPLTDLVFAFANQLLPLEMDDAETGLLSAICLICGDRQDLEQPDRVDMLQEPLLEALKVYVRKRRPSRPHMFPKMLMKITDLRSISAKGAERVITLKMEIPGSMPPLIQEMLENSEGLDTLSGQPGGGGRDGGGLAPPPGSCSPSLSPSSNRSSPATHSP
The data set is described as follows: Transactivation (luciferase) antagonist assay, RARα. In kind it is cell-based. The conditions noted are these: vs EC80 (180 nM) 9-cis-RA, luciferase readout; read-out: RARα Antagonism IC50. As for the experimental part: as §1

The target in a further data set is T3, RARβ (Homo sapiens, UniProt P10826).
T3 construct: host or cells: unnamed reporter cells
T3 sequence (P10826 1-455): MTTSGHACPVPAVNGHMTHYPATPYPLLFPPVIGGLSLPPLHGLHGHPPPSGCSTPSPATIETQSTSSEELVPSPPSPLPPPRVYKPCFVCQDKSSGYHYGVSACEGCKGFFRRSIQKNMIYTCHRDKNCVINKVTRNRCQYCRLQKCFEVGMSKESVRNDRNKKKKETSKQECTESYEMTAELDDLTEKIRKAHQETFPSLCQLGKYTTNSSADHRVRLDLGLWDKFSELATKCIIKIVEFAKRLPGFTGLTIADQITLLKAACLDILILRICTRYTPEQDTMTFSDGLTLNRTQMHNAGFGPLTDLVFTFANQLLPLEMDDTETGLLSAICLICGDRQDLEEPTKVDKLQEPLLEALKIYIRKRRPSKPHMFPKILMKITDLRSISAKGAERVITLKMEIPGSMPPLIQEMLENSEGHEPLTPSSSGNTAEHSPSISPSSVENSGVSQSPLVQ
The data set is described as follows: Transactivation (luciferase) antagonist assay, RARβ. In kind it is cell-based. The conditions noted are these: vs EC80 (8 nM) ATRA, luciferase readout; read-out: RARβ Antagonism IC50. The method, then:
as §1

In brackets after ≈: the same amount, converted by molar mass. Where only a bound is given, the exact number is not on record here.

For `CC(=O)[C@H]1CC[C@H]2[C@@H]3CCC4=CC(=O)CC[C@]4(C)[C@H]3CC[C@]12C` [Progesterone, reference compound], the “solubility” value in data set [1] was 14.02 µM (≈ 4.41 µg/mL). As to `CC1(C)C=C(c2ccccc2)c2cc(-c3ccc(-c4ccc(C(=O)O)cc4)[nH]3)ccc2O1`, the IC50 on RARγ was greater than 3300 nM; on RARα, 15 nM; on RARβ, greater than 3300 nM. As for `Cc1ccc(C2=CC(C)(C)Oc3ccc(-c4ccc(-c5ccc(C(=O)O)c(F)c5)[nH]4)cc32)cc1`, the IC50 on RARα came out at 100 nM. For `Cc1ccc(C2=CC(C)(C)Oc3ccc(-c4ccc(-c5cc(F)c(C(=O)O)c(F)c5)[nH]4)cc32)cc1`, the IC50 on RARα worked out at 470 nM. On the same count and under the same terms, the same measure for `COc1cc2c(cc1-c1ccc(-c3ccc(C(=O)O)cc3)[nH]1)C(c1ccc(C)cc1)=CC(C)(C)O2`: 2000 nM. On to `Cc1ccc(C2=CC(C)(C)Oc3ccc(-c4ccc(-c5ccc(C(=O)O)c(O)c5)[nH]4)cc32)cc1`, for which the values for the IC50 on RARγ, at RARα and at RARβ were greater than 3000 nM, 94 nM and greater than 3000 nM, respectively. Turning to `Cc1ccc(C2=CC(C)(C)Oc3ccc(-c4ccc(-c5ccc(C(=O)O)c(C)c5)[nH]4)cc32)cc1`, the IC50 was greater than 3000 nM on RARγ, 87 nM on RARα and greater than 3000 nM at RARβ.
